Source: patent US9643985B2, “PCL compounds, compositions, and methods of use thereof” (The Board Of Trustees Of The University Of Illinois, priority 2013, dated 2017)
Where two headings read alike, the source gives them in different places.

Legend:
[1] = Yield of D-Luciferin (A385) after treatment with H2O2
Excerpt: (§1) The environment inside most cellular compartments is “reducing”—a status heavily dependent on the multiple antioxidant systems that rapidly detoxify oxidants in cells such as thioredoxins and glutathione/glutathione reductase redox systems and catalase. A viable biosensor for an oxidant inside of cells and tissue should detect its target in the presence of these and other ubiquitous milieu components.
(§2) Data were normalized to bioluminescence obtained from an identical treatment of authentic D-Luciferin (5 μM). […] In all cases, spectral contributions from oxidants were subtracted via a parallel blank experiment containing no PCL-1.

[2] = Yield of D-Luciferin (A385) after treatment with peroxynitrite (bolus or SIN-1 derived); details: for Maximum Yield Luciferin(%): 5 μM PCL-1 in TBS, pH 8.5, 37° C., 90 minutes, A385
Excerpt: Where applicable, spectral contributions from oxidants were subtracted via a parallel blank experiment containing no PCL-1.
as §1, §2

[3] = Rate constant of reaction with H2O2; details: 100 mM sodium phosphate, pH 7.4, 37° C. (Table 3)
[4] = Rate constant of reaction with peroxynitrite, stopped-flow spectroscopy; details: 100 mM sodium phosphate, pH 7.4, 37° C. (Table 3)
[5] = tested on: mouse bone marrow-derived macrophages (BMDM); assay: Detection of iNOS-derived peroxynitrite in LPS-stimulated macrophages; type: cell-based
Method: Bone marrow derived macrophages were prepared using 10% L929 cell (ATCC) supernatant in RPMI medium (Cellgro) made complete with 10% FBS, penicillin, streptomycin, and glutamine (Gibco). Cells were cultured 4-6 days prior to plating for experiments in opaque, white microtiter plates (Falcon) for analysis on a Wallac Victor2 luminometer (PerkinElmer).
In order to validate the utility of PCL-1 to detect peroxynitrite in cells, mouse bone marrow-derived macrophages (BMDM) were stimulated with 50 ng/mL bacterial LPS (lipopolysaccharide) for 22 hours, 5 μM PCL-1 was added for an additional 2 hours, then D-Luciferin generated was quantified over the course of 2 hours by addition of […] recombinant luciferase, according to Example 1.

C57BL/6 mice irradiated = assay: Irradiated mouse model, fecal PCL-1/luciferin marker by LC-MS/MS; type: in vivo
Method: (§3) C57BL/6 mice were irradiated at a high lethal dose of 13Gy or at a LD70/30 of 8.1Gy in independent experiments using a Cs^137 source. PCL-1 was administered via oral gavage at 40 or 60 μM/animal, 0.2 mL volume per animal. Fecal samples were collected […] from the irradiated and non-irradiated mice at different time points (pre-dose, 4, 6 and 8 hr post-dose) prior to irradiation and also on days 1, 5 and 7 post-irradiation from all animals. PCL-1 and cleaved PCL-1 (luciferin) levels were measured in the feces using LC-MS/MS method.

[6] = Safety of PCL-1 in mice, oral gavage; type: in vivo; details: 40 to 250 μM per animal via oral gavage
[7] = Maximum fecal concentrations after oral administration of PCL-1; type: in vivo, mice; details: up to a 6.25 fold increase in dose
Method: as §3
Additionally with up to a 6.25 fold increase in dose a directly proportional fold increase in marker detected was not observed.

[8] = Reactivity of PCL-1 towards other oxidants
[9] = Total bioluminescence after minimal SIN-1 or H2O2 (FIG. 1); details: 60 minutes at 37° C.
Method: Recombinant luciferase was added to the reaction mixture and bioluminescence was detected at 612 nm for 60 minutes. D-Luciferin (5 μM) was used as a determinant of maximum yield.

[10] = rate constant of the competing milieu component with peroxynitrite; cited from earlier work

## O=C(O)[C@H]1CSC(c2nc3ccc(OCc4ccc(B(O)O)cc4)cc3s2)=N1 [PCL-1]
[1]; H2O2 (100 μM) added to 5 μM PCL-1 in TBS, pH 8.5, 37° C., 90 minutes, A385 normalized to authentic D-luciferin
  Maximum Yield Luciferin(%): 97%
[1]; H2O2 as oxidant, with added BSA
  yield luciferin: 7.38±1.39%
[1]; in the presence of GSH, albumin or catalase
  H2O2-mediated conversion to luciferin: negligible
[1]; in vitro, in the absence of GSH, albumin, or catalase
  conversion to luciferin by H2O2: quantitatively converted to luciferin
[2]; SIN-1, in the presence of BSA
  D-luciferin obtained: 45.49%
[2]; at the tested concentrations
  effect of GSH, albumin or catalase on peroxynitrite reactivity: ≤ 10%
[2]; peroxynitrite bolus (10 μM)
  Maximum Yield Luciferin(%): 95%
[2]; peroxynitrite from SIN-1 (100 μM)
  Maximum Yield Luciferin(%): 96%
[2]; peroxynitrite, in the presence of 66.5 mg/mL BSA (1.0 mM)
  yield of D-Luciferin: 87.5±7.48%
[3]
  kH2O2: 1.2 (±0.3) M^−1s^−1
[4]
  kONOO−: 9.8 (±0.1) × 10^5 M^−1s^−1
[5]; BMDMs from iNOS^−/− animals, LPS
  D-Luciferin signal: no signal above baseline
[5]; wild-type macrophages, LPS 50 ng/mL, 5 μM PCL-1
  D-Luciferin production over the baseline value: nearly two-fold increase
C57BL/6 mice irradiated; 8.1Gy irradiation, until day 7
  increase in PCL-1 and % cleaved PCL-1 levels in the feces: two-fold or more increase
C57BL/6 mice irradiated; 13Gy, days 5 to 7, PCL-1 oral gavage
  increase in the level of the marker in fecal samples vs control: about 3 fold
[6]
  signs of toxicity: no signs of toxicity were observed
[7]
  dose dependence of fecal detection: not dose dependent
[8]
  sensitivity towards NO, superoxide radical anion, HOCl, and singlet oxygen: insensitive

## O=C(O)[C@H]1CSC(c2nc3ccc(OCc4ccc(B(O)O)c(F)c4)cc3s2)=N1 [PCL-F, (S)-2-(6-(4-borono-3-fluorobenzyloxy)benzo[d]thiazol-2-yl)-4,5-dihydrothiazole-4-carboxylic acid]
[1]; 5 μM in TBS, pH 8.5, 37° C., 100 μM H2O2, 90 minutes, compared to PCL-1
  reactivity with H2O2: Little reactivity
[2]; 5 μM, 100 μM SIN-1, 90 minutes
  glutathione concentration until which reactivity with SIN-1 was retained: 1 to 5 mM
[3]
  kH2O2: 0.11 (±0.02) M^−1s^−1
[4]
  kONOO−: 4.5 (±0.2) × 10^5 M^−1s^−1
[9]; 5 μM, bioluminescence at 612 nm
  resistance to hydrolysis: resistant to hydrolysis in comparison to PCL-1
[9]; SIN-1 (2.5 μM) or H2O2 (25 μM)
  selectivity in detecting peroxynitrite vs. hydrogen peroxide: more selective than PCL-1

## N[C@@H](CCC(=O)N[C@@H](CS)C(=O)NCC(=O)O)C(=O)O [glutathione]
[10]
  kONOO−: 1400 M⁻¹ s⁻¹

## bovine serum albumin: milieu component competing for oxidants
[10]
  kONOO−: 8310 M⁻¹ s⁻¹
